ChEMBL document CHEMBL5608246, “Membrane-Targeting Amphiphilic Honokiol Derivatives Containing an Oxazole Moiety as Potential Antibacterials against Methicillin-Resistant Staphylococcus aureus” (J Med Chem, 2024)
Calls of active or inactive are those of the source. The rule behind the calls is not given here.

Experiments:
Staphylococcus aureus [1] = experiment: Antibacterial activity against Staphylococcus aureus ATCC 29213 assessed as resistance development by measuring fold increase in MIC after 20 passages incubated for 16 to 18 hrs; type: functional; conditions: time 16-18 hrs
[2] = Toxicity in Kunming mouse skin abscess model infected with methicillin resistant Staphylococcus aureus assessed as spleen damage at 5 mg/kg, sc measured after 2 hrs by H and E staining based assay; type: organism-based; conditions: in vivo
[3] = Toxicity in Kunming mouse skin abscess model infected with methicillin resistant Staphylococcus aureus assessed as lungs damage at 5 mg/kg, sc measured after 2 hrs by H and E staining based assay; type: organism-based; conditions: in vivo
[4] = Toxicity in Kunming mouse skin abscess model infected with methicillin resistant Staphylococcus aureus assessed as heart damage at 5 mg/kg, sc measured after 2 hrs by H and E staining based assay; type: organism-based; conditions: in vivo
[5] = Toxicity in Kunming mouse skin abscess model infected with methicillin resistant Staphylococcus aureus assessed as kidneys damage at 5 mg/kg, sc measured after 2 hrs by H and E staining based assay; type: organism-based; conditions: in vivo
Staphylococcus aureus [6] = experiment: Antibacterial activity against methicillin resistant Staphylococcus aureus 20 infected in Kunming mouse skin abscess model assessed as reduction in IL-6 level at 5 mg/kg, sc measured after 2 hrs by ELISA; type: functional, organism-based
Staphylococcus aureus [7] = experiment: Bactericidal activity against Staphylococcus aureus ATCC 29213 at 8 times MIC within 8 hrs by time kill assay; type: functional, organism-based
Staphylococcus aureus [8] = experiment: Antibacterial activity against methicillin resistant Staphylococcus aureus 20 infected in Kunming mouse skin abscess model assessed as reduction in TNF-alpha level at 5 mg/kg, sc measured after 2 hrs by ELISA; type: functional, organism-based
[9] = Toxicity in Kunming mouse skin abscess model infected with methicillin resistant Staphylococcus aureus assessed as liver damage at 5 mg/kg, sc measured after 2 hrs by H and E staining based assay; type: organism-based; conditions: in vivo
Staphylococcus aureus [10] = experiment: Antibacterial activity against methicillin resistant Staphylococcus aureus 20 infected in Kunming mouse skin abscess model assessed as reduction in inflammatory cells in infection sites at 5 mg/kg, sc measured after 2 hrs; type: functional, organism-based
Staphylococcus aureus [11] = experiment: Antibacterial activity against methicillin resistant Staphylococcus aureus 20 infected in Kunming mouse skin abscess model assessed as reduction in bacterial load at 5 mg/kg, sc measured after 2 hrs; type: functional; design: scale not given: the % may be the effect or the level left
[12] = Hemolytic activity in sheep RBC incubated for 1 hr; type: toxicity, cell-based, Ovis aries, Erythrocyte; conditions: sheep red blood cells (erythrocytes)
Staphylococcus aureus [13] = experiment: Antibacterial activity against methicillin resistant Staphylococcus aureus M21 incubated for 16 to 18 hrs by broth dilution method; type: functional; conditions: time 16-18 hrs
Staphylococcus aureus [14] = experiment: Antibacterial activity against methicillin resistant Staphylococcus aureus M22 incubated for 16 to 18 hrs by broth dilution method; type: functional; conditions: time 16-18 hrs
[15] = Selectivity index, ratio of HC50 for sheep RBC to MIC for Staphylococcus aureus ATCC 29213; type: toxicity; conditions: sheep red blood cells, read-out: Selectivity Index
Staphylococcus aureus [16] = experiment: Antibacterial activity against methicillin resistant Staphylococcus aureus M16 incubated for 16 to 18 hrs by broth dilution method; type: functional; conditions: time 16-18 hrs
Staphylococcus aureus [17] = experiment: Antibacterial activity against methicillin resistant Staphylococcus aureus M23 incubated for 16 to 18 hrs by broth dilution method; type: functional; conditions: time 16-18 hrs
Staphylococcus aureus [18] = experiment: Antibacterial activity against methicillin resistant Staphylococcus aureus M20 incubated for 16 to 18 hrs by broth dilution method; type: functional; conditions: time 16-18 hrs
Staphylococcus aureus [19] = experiment: Antibacterial activity against methicillin resistant Staphylococcus aureus N315 incubated for 16 to 18 hrs by broth dilution method; type: functional; conditions: time 16-18 hrs
Staphylococcus aureus [20] = experiment: Antibacterial activity against Staphylococcus aureus ATCC 29213 incubated for 16 to 18 hrs by broth dilution method; type: functional; conditions: time 16-18 hrs
Staphylococcus aureus [21] = experiment: Antibacterial activity against methicillin resistant Staphylococcus aureus M11 incubated for 16 to 18 hrs by broth dilution method; type: functional; conditions: time 16-18 hrs
Staphylococcus aureus [22] = experiment: Antibacterial activity against methicillin resistant Staphylococcus aureus M14 incubated for 16 to 18 hrs by broth dilution method; type: functional; conditions: time 16-18 hrs
Escherichia coli = experiment: Antibacterial activity against Escherichia coli ATCC 25922 incubated for 16 to 18 hrs by broth dilution method; type: functional; conditions: time 16-18 hrs
Staphylococcus aureus [23] = experiment: Antibacterial activity against methicillin resistant Staphylococcus aureus M13 incubated for 16 to 18 hrs by broth dilution method; type: functional; conditions: time 16-18 hrs
Staphylococcus aureus [24] = experiment: Antibacterial activity against methicillin resistant Staphylococcus aureus M17 incubated for 16 to 18 hrs by broth dilution method; type: functional; conditions: time 16-18 hrs
Staphylococcus aureus [25] = experiment: Antibacterial activity against methicillin resistant Staphylococcus aureus M12 incubated for 16 to 18 hrs by broth dilution method; type: functional; conditions: time 16-18 hrs
Cell membrane = experiment: Induction of membrane permeability in methicillin resistant Staphylococcus aureus 20 at 32 ug/ml measured at 2 mins interval over 20 mins by SYTOX green staining based assay; conditions: dose 32.0 µg/ml

SMILES | HC50 at 1 h [12] [µg/mL] | MIC (Staphylococcus aureus [13]) [µg/mL] | MIC (Staphylococcus aureus [14]) [µg/mL] | selectivity ratio [15] | MIC (Staphylococcus aureus [16]) [µg/mL] | MIC (Staphylococcus aureus [17]) [µg/mL] | MIC (Staphylococcus aureus [18]) [µg/mL] | MIC (Staphylococcus aureus [19]) [µg/mL] | MIC (Staphylococcus aureus [20]) [µg/mL] | MIC (Staphylococcus aureus [21]) [µg/mL] | MIC (Staphylococcus aureus [22]) [µg/mL] | MIC (Escherichia coli) [µg/mL] | MIC (Staphylococcus aureus [23]) [µg/mL] | MIC (Staphylococcus aureus [24]) [µg/mL] | MIC (Staphylococcus aureus [25]) [µg/mL] | also measured
CCn1cc(C(=O)O)c(=O)c2cc(F)c(N3CCNCC3)cc21 [NORFLOXACIN] | – | – | – | – | – | – | – | – | – | – | – | – | – | – | – | fold change (FC) (Staphylococcus aureus [1]): 128
CN[C@H](CC(C)C)C(=O)N[C@H]1C(=O)N[C@@H](CC(N)=O)C(=O)N[C@H]2C(=O)N[C@H]3C(=O)N[C@H](C(=O)N[C@H](C(=O)O)c4cc(O)cc(O)c4-c4cc3ccc4O)[C@H](O)c3ccc(c(Cl)c3)Oc3cc2cc(c3O[C@@H]2O[C@H](CO)[C@@H](O)[C@H](O)[C@H]2O[C@H]2C[C@](C)(N)[C@H](O)[C@H](C)O2)Oc2ccc(cc2Cl)[C@H]1O [VANCOMYCIN] | – | – | – | – | – | – | – | – | – | – | – | – | – | – | – | Activity [2]: Non-Toxic; Activity [3]: Non-Toxic; Activity [4]: Non-Toxic; Activity [5]: Non-Toxic; Activity (Staphylococcus aureus [6]): Active; Activity (Staphylococcus aureus [7]): inactive; Activity (Staphylococcus aureus [8]): Active; Activity [9]: Non-Toxic; Activity (Staphylococcus aureus [10]): Active; Activity (Staphylococcus aureus [11]): 95.62%
C=CCc1cc(-c2ccc(OCCC[N+](C)(C)CC(=O)NCCCC)c(CC=C)c2)c2oc(-c3ccccc3)nc2c1.[Br-] | > 160 | 2 | 2 | > 20 | 4 | 2 | 2 | 16 | 8 | 2 | 4 | > 128 | 2 | 1 | 2 | –
C=CCc1cc(-c2ccc(OCCC[N+](C)(C)CC(=O)NCCCC)c(CC=C)c2)c2oc(-c3cccc(Cl)c3Cl)nc2c1.[Br-] | 39.5 | 8 | 8 | 1.2 | 8 | 8 | 4 | 8 | 32 | 16 | 4 | 128 | 16 | 4 | 8 | –
C=CCc1cc(-c2ccc(OCCC[N+](C)(C)CC(=O)NCCCC)c(CC=C)c2)c2oc(-c3ccc(Cl)cc3Cl)nc2c1.[Br-] | 85.9 | 8 | 16 | 2.7 | 8 | 8 | 8 | 32 | 32 | 64 | 8 | > 128 | 16 | 8 | 16 | –
CC[C@H](C)[C@H](NC(=O)CN)C(=O)NCC(=O)N[C@@H](C)C(=O)N[C@H](C(=O)N[C@@H](CC(C)C)C(=O)N[C@@H](CCCCN)C(=O)N[C@H](C(=O)N[C@@H](CC(C)C)C(=O)N[C@H](C(=O)N[C@H](C(=O)NCC(=O)N[C@@H](CC(C)C)C(=O)N1CCC[C@H]1C(=O)N[C@@H](C)C(=O)N[C@@H](CC(C)C)C(=O)N[C@H](C(=O)N[C@@H](CO)C(=O)N[C@@H](Cc1c[nH]c2ccccc12)C(=O)N[C@H](C(=O)N[C@@H](CCCCN)C(=O)N[C@@H](CCCNC(=N)N)C(=O)N[C@@H](CCCCN)C(=O)N[C@@H](CCCNC(=N)N)C(=O)N[C@@H](CCC(N)=O)C(=O)N[C@@H](CCC(N)=O)C(N)=O)[C@@H](C)CC)[C@@H](C)CC)[C@@H](C)O)[C@@H](C)O)C(C)C)C(C)C | – | – | – | – | – | – | – | – | – | – | – | – | – | – | – | Activity (Cell membrane): Active
C=CCc1cc(-c2ccc(OCCC[N+](C)(C)CC(=O)NCCCC)c(CC=C)c2)c2oc(-c3ccc(Cl)c(Br)c3)nc2c1.[Br-] | > 320 | 128 | 128 | > 2.5 | 64 | 128 | 128 | 128 | 128 | > 128 | 64 | > 128 | 32 | 128 | 128 | –
C=CCc1cc(-c2ccc(OCCC[N+](C)(C)CC(=O)NCCCC)c(CC=C)c2)c2oc(-c3ccc(F)c(F)c3)nc2c1.[Br-] | 222 | 4 | 16 | 27.7 | 4 | 4 | 4 | 32 | 8 | 8 | 4 | > 128 | 4 | 4 | 8 | –
C=CCc1cc(-c2ccc(OCCC[N+](C)(C)CC(=O)NCCCC)c(CC=C)c2)c2oc(-c3cc(Br)ccc3F)nc2c1.[Br-] | > 320 | 4 | 8 | > 5 | 8 | 8 | 4 | 32 | 64 | 8 | 4 | 128 | 4 | 4 | 8 | –
C=CCc1cc(-c2ccc(OCCC[N+](C)(C)CC(=O)NCCCC)c(CC=C)c2)c2oc(-c3ccccc3F)nc2c1.[Br-] | 110 | 8 | 4 | 27.4 | 4 | 4 | 4 | 8 | 4 | 4 | 4 | 128 | 4 | 4 | 4 | –
C=CCc1cc(-c2ccc(OCCC[N+](C)(C)CC(=O)NCCCC)c(CC=C)c2)c2oc(-c3ccc(F)c(Br)c3)nc2c1.[Br-] | 48.5 | 8 | 32 | 0.4 | 16 | 16 | 8 | 128 | 128 | 8 | 8 | 128 | 8 | 16 | 16 | –
C=CCc1cc(-c2ccc(OCCC[N+](C)(C)CC(=O)NCCCC)c(CC=C)c2)c2oc(-c3ccc(F)cc3)nc2c1.[Br-] | > 320 | 8 | 8 | > 10 | 8 | 8 | 8 | 16 | 32 | 16 | 8 | > 128 | 8 | 8 | 16 | –
C=CCc1cc(-c2ccc(OCCC[N+](C)(C)CC(=O)NCCCC)c(CC=C)c2)c2oc(-c3cc(Cl)cc(Cl)c3)nc2c1.[Br-] | 81.3 | 32 | 128 | 0.6 | 64 | 128 | 128 | 128 | 128 | > 128 | 64 | > 128 | 32 | 32 | 128 | –
